Values belong to the compound of their own block, whether it stands above or below them. Numbered stars: 1 amine (or outer) side, 2 acyl side, 3 side chain; on linkers, the order of the positions; unused ones are H or OH. Square brackets hold non-standard residues; d marks the D form. Ends that are not written are not given here. Peptide text beside a SMILES is read from it. ξ: configuration not given here. ξIsoserine = O=C(C(O)CN[*:1])[*:2]
Columns and labels:
[1] = molecular target: T1, plasma aminopeptidase M (Homo sapiens, UniProt P15144); test: Peptide digestion during incubation with platelet-poor plasma, HPLC; assay type: in vitro ADME
T1 construct: from tissue; host or cells: human citrated platelet-poor plasma
Procedure: (§1) Peptide Digestion Studies. For T-11 amino acids 1 to 11 of SEQ ID NO:1 and (D-Ser)T-11 SEQ ID NO:11 digestions, 0.11 volume of 20 mM peptide in 0.15M NaCl, 0.01 Tris/HCl, pH 7.4, was added to citrated platelet-poor plasma to achieve a final concentration of 2 mM. Samples were incubated for 2 hours at 37° C. and then the plasma proteins were precipitated with 9-10% trichloroacetic acid at 4° C. for at least 30 min. After centrifugation at 12000 g at 22° C. for 3 min., the supernatant was analyzed to determine peptide cleavage by reverse-phase HPLC (C8; Applied Biosystems 300 RP Aquapore; 220×4.6-mm column); elution was with 0.1% trifluoroacetic acid with a 0-60% acetonitrile gradient.
(§2) To determine the amino acid sequence of the digestion products of T-11 amino acids 1 to 11 of SEQ ID NO:1 and (D-Ser)T-11 SEQ ID NO:11 and to assess their ability to aggregate platelets, the peptide (2 mM) was incubated with citrated PPP for 2 hours at 37° C., plasma proteins were precipitated with trichloroacetic acid, and the supernatant after centrifugation was both analyzed and fractionated on the analytical reverse-phase column. Peak fractions were dried in a vacuum centrifuge (Speed-Vac, Savant, Farmingdale, N.Y.) and dissolved in either buffer (0.15M NaCl and 0.01 M Tris/HCl, pH 7.4) for aggregation studies or 0.1% trifluoroacetic acid for amino acid analysis. Quantitative amino acid analysis of the peptides was performed with commercial reagents and equipment (Pico-Tag workstation and C-18 Pico-Tag column; Waters-Millipore, Bedford, Mass.). The amino acid sequence could then be inferred from the amino acid content of each peak.
(§3) For the Ser-Phe-Leu-Leu-Arg-Asn (SFLLRN) amino acids 1 to 6 of SEQ ID NO:1 and (iso-Ser)-Phe-Leu-Leu-Arg-Asn ((iso-S))FLLRN SEQ ID NO:7 studies, 2 mM peptide in buffer (0.15 M NaCl, 0.01 M Tris/HCl, pH 7.4) was mixed with an equal volume of citrated platelet-poor plasma (1:1) and separately with an equal volume of buffer and incubated at 37° C for variable periods of time. Aliquots were removed at 15, 30, 45, 60 and 120 minutes and analyzed for both the ability to aggregate platelets and peptide cleavage.
(§4) For peptide digestion studies for SFLLRN amino acids 1 to 6 of SEQ ID NO:1 and (iso-S)FLLRN SEQ ID NO:7, samples were removed at various times and analyzed for peptide digestion by HPLC after precipitating the plasma proteins with trichloroacetic acid.

[2] = molecular target: T1, plasma aminopeptidase M; test: Loss of peptide platelet aggregating activity during plasma incubation; assay type: in vitro ADME; conditions: for aggregating activity after plasma incubation: 125 μM peptide; for platelet aggregating activity when incubated in plasma: 2 mM peptide mixed 1:1 with platelet-poor plasma, up to 2 hours
Procedure: (§5) Platelet Aggregation. Platelet Rich Plasma (hereinafter "PRP") was obtained from human blood anticoagulated with sodium citrate (0.01 volume of 40% trisodium citrate) or acid-citrate-dextrose (hereinafter "ACD") solution A (ACD-A; 8.5 mL of blood: 1.5 mL of ACD-A) by centrifugation at 700 g for 3.5 min. at 22° C. Platelet-poor plasma (hereinafter "PPP") was obtained by centrifuging the PRP at 2000g for 8 min. at 22° C. The pH of the citrated PRP after preparation was about 7.7 whereas the pH of the ACD-A PRP was about 7.0. The pH of the PRP was adjusted, when necessary with 1M NaOH or 1M HCl and maintained at about 7.70. Platelet aggregation was performed in a dual-channel aggregometer (Chronolog, Hayertown, Pa.) using matched stir bars.
[…] Aliquots were removed at 15, 30, 45, 60 and 120 minutes and analyzed for both the ability to aggregate platelets and peptide cleavage.

[3] = molecular target: T1, plasma aminopeptidase M; conditions: previously demonstrated, Coller et al. 1992; cited from earlier work
[4] = system: gel-filtered platelets; conditions: Vu et al. 1991; cited from earlier work
[5] = molecular target: aminopeptidase M (Homo sapiens, UniProt P15144); conditions: Coller et al. 1992; not with thrombin; cited from earlier work
[6] = system: T2, plasma aminopeptidase M; test: Peptide digestion during incubation with platelet-poor plasma, HPLC; assay type: in vitro ADME, human; conditions: human; for remaining at 2 h, 1 mM: 120 min; for metabolised at 2 h, 1 mM: incubated with plasma at 37° C., about two hours, read-out: peptide cleavage
T2 construct: from tissue; host or cells: human citrated platelet-poor plasma
Procedure: as §1, §2, §3, §4

[7] = molecular target: T3, thrombin receptor on platelets (Homo sapiens, UniProt P25116); test: Dose response of peptide-induced platelet aggregation in platelet-rich plasma; assay type: cell-based
T3 construct: Citrated platelet-rich plasma (PRP; 307,000 platelets/μl, pH 7.0; 0.45 ml) was stirred in a cuvette at 37° C; endogenous in cells; host or cells: human platelets in citrated platelet-rich plasma
T3 sequence (P25116 22-425): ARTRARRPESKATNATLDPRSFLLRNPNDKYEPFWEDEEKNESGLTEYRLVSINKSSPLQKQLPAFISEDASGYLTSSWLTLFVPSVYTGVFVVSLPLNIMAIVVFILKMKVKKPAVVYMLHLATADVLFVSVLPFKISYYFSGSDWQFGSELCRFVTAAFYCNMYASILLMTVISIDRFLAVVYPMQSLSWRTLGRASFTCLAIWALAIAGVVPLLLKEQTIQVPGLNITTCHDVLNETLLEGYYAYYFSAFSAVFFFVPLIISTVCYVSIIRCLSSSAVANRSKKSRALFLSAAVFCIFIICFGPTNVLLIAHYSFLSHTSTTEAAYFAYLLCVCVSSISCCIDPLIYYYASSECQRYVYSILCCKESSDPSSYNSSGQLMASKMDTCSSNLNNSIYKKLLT
Procedure: as §5
Dose Response of Peptide-Induced Aggregation. Citrated platelet-rich plasma (PRP; 307,000 platelets/μl, pH 7.0; 0.45 ml) was stirred in a cuvette at 37° C. and then […] of Ser-Phe-Leu-Leu-Arg-Asn-Pro-Asn-Asp-Lys-Tyr (T-11) amino acids 1 to 11 of SEQ ID NO:1, (D-Ser)-Phe-Leu-Leu-Arg-Asn-Pro-Asn-Asp-Lys-Tyr ((DS)T-11) SEQ ID NO:11, Ser-Phe-Leu-Leu-Arg-Asn amino acids 1 to 6 of SEQ ID NO:1 or (iso-Ser)-Phe-Leu-Leu-Arg-Asn SEQ ID NO:7 peptide was added to achieve the final concentration as follows: Ser-Phe-Leu-Leu-Arg-Asn-Pro-Asn-Asp-Lys-Tyr amino acids 1 to 11 of SEQ ID NO:1 was added to a maximum concentration of 2.9 μM; (D-Ser)-Phe-Leu-Leu-Arg-Asn-Pro-Asn-Asp-Lys-Tyr SEQ IS NO:11 was added to a maximum concentration of 940 μM; Ser-Phe-Leu-Leu-Arg-Asn amino acids 1 to 6 of SEQ ID NO:1 was added to a maximum concentration of 1.7 μM; (iso-Ser)-Phe-Leu-Leu-Arg-Asn SEQ ID NO:7 was added up to a maximum concentration of 4.9 μM.

[8] = 1 mM final, 50% platelet-poor plasma, 37° C., 2 hours
[9] = 50% citrated platelet-poor plasma, 1 mM final, 50% platelet-poor plasma, 37° C., read-out: percentage remaining intact

T1 sequence (P15144 whole entry): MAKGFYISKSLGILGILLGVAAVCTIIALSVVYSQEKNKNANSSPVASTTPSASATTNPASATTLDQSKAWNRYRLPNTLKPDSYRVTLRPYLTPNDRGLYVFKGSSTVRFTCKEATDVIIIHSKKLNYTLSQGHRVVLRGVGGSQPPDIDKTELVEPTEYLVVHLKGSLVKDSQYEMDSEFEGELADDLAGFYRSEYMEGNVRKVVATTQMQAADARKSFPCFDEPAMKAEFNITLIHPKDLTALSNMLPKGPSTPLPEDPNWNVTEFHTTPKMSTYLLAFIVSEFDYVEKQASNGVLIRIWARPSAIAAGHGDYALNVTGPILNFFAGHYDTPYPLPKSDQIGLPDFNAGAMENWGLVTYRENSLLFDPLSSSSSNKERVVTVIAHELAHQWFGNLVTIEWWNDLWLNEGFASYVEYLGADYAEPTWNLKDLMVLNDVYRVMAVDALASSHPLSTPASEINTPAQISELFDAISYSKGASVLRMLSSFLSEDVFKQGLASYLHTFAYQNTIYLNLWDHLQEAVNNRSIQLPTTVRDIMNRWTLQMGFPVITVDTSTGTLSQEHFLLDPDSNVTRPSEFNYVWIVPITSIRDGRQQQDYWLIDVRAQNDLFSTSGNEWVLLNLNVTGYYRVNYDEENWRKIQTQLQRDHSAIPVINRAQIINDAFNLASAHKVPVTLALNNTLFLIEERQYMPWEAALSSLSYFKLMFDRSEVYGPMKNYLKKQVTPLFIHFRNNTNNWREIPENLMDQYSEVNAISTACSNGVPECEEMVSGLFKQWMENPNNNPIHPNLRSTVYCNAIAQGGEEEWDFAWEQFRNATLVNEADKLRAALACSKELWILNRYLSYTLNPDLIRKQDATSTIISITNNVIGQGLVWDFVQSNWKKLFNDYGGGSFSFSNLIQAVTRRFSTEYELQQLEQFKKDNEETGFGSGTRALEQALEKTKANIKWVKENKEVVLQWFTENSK
Sequence of aminopeptidase M (P15144 whole entry, species assumed): as the sequence (P15144 whole entry) above

Compound: CC(C)C[C@H](NC(=O)[C@H](Cc1ccccc1)NC(=O)[C@H](N)CO)C(=O)N[C@@H](CC(C)C)C(=O)N[C@@H](CCCNC(=N)N)C(=O)N[C@@H](CC(N)=O)C(=O)N1CCC[C@H]1C(=O)N[C@@H](CC(N)=O)C(=O)N[C@@H](CC(=O)O)C(=O)N[C@@H](CCCCN)C(=O)N[C@@H](Cc1ccc(O)cc1)C(N)=O [(DS)T-11, (D-Ser)-Phe-Leu-Leu-Arg-Asn-Pro-Asn-Asp-Lys-Tyr] (H-[dS]FLLRNPNDKY-NH2)
peptide cleavage (in words) ([1]; 2 mM peptide, platelet-poor plasma, 37° C., 2 hours): did not undergo any identifiable cleavage
aggregating activity retained after plasma incubation ([2]; incubated with plasma for 1 hour): retained more than half its aggregating activity

Compound: SFLLRNPNDKYEPF [T-14, 14 amino acid peptide mimicking the new amino terminus of the cleaved thrombin receptor]
aggregating activity when incubated in plasma [3]: lost aggregating activity
aggregation of gel-filtered platelets [4]: able to aggregate gel-filtered platelets directly

Compound: CC(C)C[C@@H](N)[C@H](O)C(=O)N[C@H](C(=O)N[C@H](C(=O)N[C@@H](CC(=O)O)C(=O)O)C(C)C)C(C)C [amastatin]
effect on aggregation induced by T-11 [5]: enhanced aggregation induced by T-11

remaining at 2 h, 2 mM ([6]; citrated platelet-poor plasma, 2 mM peptide, platelet-poor plasma, 37° C., 2 hours, read-out: peptide remaining intact): 34%
time to loss of all aggregating activity ([2]; incubated with plasma): ≤ 1 h
incubation time sufficient to produce significant inhibition of aggregating ability ([2]; preincubation in plasma at 37° C.): ≤ 10 min
Compound: SFLLRNPNDKY-NH2 [T-11, Ser-Phe-Leu-Leu-Arg-Asn-Pro-Asn-Asp-Lys-Tyr]
platelet aggregating ability after preincubation in plasma ([2]; plasma at 37° C.): progressive loss of platelet aggregating ability
aggregating activity when incubated in plasma [3]: lost aggregating activity

extent of digestion (in words) [1, 8]: minimal digestion
peptide remaining intact (in words) ([1]; 1 mM final, 50% platelet-poor plasma, 37° C., first 60 min): Virtually all
peptide cleavage (in words) ([1]; incubated with plasma at 37° C., 45 minutes): did not undergo identifiable cleavage
remaining at 2 h, 1 mM [6, 9]: ~83%
metabolised at 2 h, 1 mM ([6]; citrated platelet-poor plasma): ~17%
platelet activating activity relative to SFLLRN ([7]; citrated PRP): 15-20%
platelet aggregating activity (in words) ([7]; citrated PRP): substantially active
EC50 ([7]; citrated PRP, 37° C., read-out: concentration to achieve half-maximal aggregation): ~4 µM
slope of platelet disaggregation phase ([7]; peptide at 3.7 μM, dose giving equivalent peak aggregation response): 4 U/min
aggregating activity after plasma incubation ([2]; 45 min): retained its full aggregating activity
aggregating activity after plasma incubation ([2]; 1 hour): some decrease in activity
aggregating activity after plasma incubation ([2]; 2 hours): some aggregating activity remained
platelet aggregating activity when incubated in plasma ([2]; 37° C.): lost little if any activity
peptide activity after incubation with buffer rather than plasma ([2]; buffer, 37° C., 2 hours): no decrease in peptide activity
platelet aggregating activity after plasma incubation ([2]; plasma at 37° C., at least two hours): remained unchanged
Compound: CC(C)C[C@H](NC(=O)[C@H](Cc1ccccc1)NC(=O)C(O)CN)C(=O)N[C@@H](CC(C)C)C(=O)N[C@@H](CCCNC(=N)N)C(=O)N[C@@H](CC(N)=O)C(N)=O (stereo partly drawn) [(iso-S)FLLRN, (iso-Ser)-Phe-Leu-Leu-Arg-Asn-NH2] (ξIsoserine-FLLRN-NH2)

time to detectable cleavage ([1]; 1 mM final, 50% platelet-poor plasma, 37° C.): ≤ 10 min
extent of digestion (in words) [1, 8]: nearly complete digestion
metabolised at 0.25 h, 1 mM ([6]; 50% citrated platelet-poor plasma, 1 mM final, 50% platelet-poor plasma, 37° C., 15 min, read-out: peptide no longer intact): 35%
remaining at 0.5 h, 1 mM ([6]; 50% citrated platelet-poor plasma, 1 mM final, 50% platelet-poor plasma, 37° C., 30 min, read-out: percentage remaining intact): 49%
remaining at 0.75 h, 1 mM ([6]; 50% citrated platelet-poor plasma, 1 mM final, 50% platelet-poor plasma, 37° C., 45 min, read-out: percentage remaining intact): 23%
remaining at 1 h, 1 mM ([6]; 50% citrated platelet-poor plasma, 1 mM final, 50% platelet-poor plasma, 37° C., 60 min, read-out: percentage remaining intact): 16%
remaining at 2 h, 1 mM [6, 9]: 4%
metabolised at 2 h, 1 mM ([6]; citrated platelet-poor plasma): 96%
time to loss of all aggregating activity ([2]; 125 μM peptide incubated with plasma): ≤ 0.3 h
time to decrease of platelet aggregating activity ([2]; incubated with plasma at 37° C.): ≤ 15 min
platelet aggregating activity after plasma incubation ([2]; plasma at 37° C., 60 minutes): nearly lost
Compound: CC(C)C[C@H](NC(=O)[C@H](CC(C)C)NC(=O)[C@H](Cc1ccccc1)NC(=O)[C@@H](N)CO)C(=O)N[C@@H](CCCN=C(N)N)C(=O)N[C@@H](CC(N)=O)C(N)=O [SFLLRN]
platelet aggregating activity when incubated in plasma ([2]; 37° C.): rapidly lost platelet aggregating activity
